{
  "source": "patent US20100286035A1",
  "about": "“NEUROMEDIN U DERIVATIVE” (Takeda Pharmaceutical Company Limited, priority 2007, published 2010)",
  "key": {"Human FM3": {"biological_target": "T1, Human FM3 (Homo sapiens, UniProt Q9HB89)", "T1 construct": "expressed in transfected cells; host or cells: CHO (dhfr-) cells; membrane fraction", "T1 sequence (Q9HB89 1-426 R203Q)": "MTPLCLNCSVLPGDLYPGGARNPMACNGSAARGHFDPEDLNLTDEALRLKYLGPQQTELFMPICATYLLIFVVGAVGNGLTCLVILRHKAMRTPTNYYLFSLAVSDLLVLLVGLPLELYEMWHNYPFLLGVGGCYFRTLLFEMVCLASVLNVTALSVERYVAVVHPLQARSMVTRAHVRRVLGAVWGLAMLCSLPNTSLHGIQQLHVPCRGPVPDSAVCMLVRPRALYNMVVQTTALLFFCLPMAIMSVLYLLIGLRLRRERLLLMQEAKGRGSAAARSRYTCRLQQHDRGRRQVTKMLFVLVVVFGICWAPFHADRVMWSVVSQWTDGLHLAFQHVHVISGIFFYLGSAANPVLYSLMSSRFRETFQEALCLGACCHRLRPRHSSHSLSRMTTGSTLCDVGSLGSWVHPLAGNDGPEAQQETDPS", "test": "Receptor binding study: 125I-NMU 8 labeled ligand binding inhibition to the FM3 membrane fraction", "conditions": "FM3/CHO membrane fraction, 25° C. for 60 min, read-out: FM3 RBA IC50", "procedure": "Human FM3 represented CHO cells (dhfr-) and human TRI represented CHO cells (dhfr-) were cultured under 5% carbon dioxide conditions at 37° C. using a 10% dialyzed FBS-containing MEMα (Invitrogen) culture. The adhered cells were peeled with 10 ml of 0.1 mM EDTA containing DPB-S (Invitrogen) and cells were recovered by centrifugal separation at 4° C. at 1000 rpm for 10 min. 15 ml of homogenizer buffer (10 mM NaHCO3 (pH 7.4), 5 mM EDTA, Protein Inhibitors=0.5 mM PMSF, 10 μg/ml Pepstatin A, 20 μg/ml Leupeptin, 4 μg/ml E-64) were added to the cell pellets obtained. […]\nNext, the reactivity between the radiation labeled ligand ^125I-NMU 8 and each receptor represented cell membrane fraction was analyzed by scatchard analysis using a reactive buffer (50 mM HEPES (pH 6.8), 1 mM EDTA, 0.1% BSA, Protein Inhibitors). […]\nNamely, dilution strings of NMU derivatives and PEG conjugates were provided and diluted membrane fraction solutions (200 μl) were added. […] According to the aforementioned operations, the amount of binding of the labeled ligand remaining in the filter was measured and the IC50 values were calculated using graph pad PRISM (FIG. 4A (FM3 receptor binding), FIG. 4B (TGR1 receptor binding), FIG. 4C (FM3 receptor binding), FIG. 4D (TGR1 receptor binding) Table 9)."}, "male C57BL/6J mice": {"system": "male C57BL/6J mice", "test": "Test Example 2: antifeedant activity of NMU-23 and NMU-8 in mice", "assay_type": "in vivo", "conditions": "peripheral administration", "procedure": "7 weeks old male C57BL/6J mice (mean bodyweight: 25 g) delivered from the Japan Charles River Company were raised for 5 to 10 days after delivery under a feeding environment regulated for temperature and humidity with lighting time (25° C., 12 hours of lighted period and 12 hours of dark period, light was lit at 8:00). Four animals were placed in one cage. After handling the mice for 5 to 8 days, the animals were housed singly in each cage where a floor mesh was spread and acclimated by intraperitoneal injection for 3 days prior to the administration of a peptide. The animals acclimated were fasted for 16 hours from 18:00 prior to the administration of the peptide. However, the animals had free access to drinking water. […] After the injection of the peptide solution, MF feed which had been weighed (Oriental Yeast Industry) was given freely to the mice. Further, the residual amount of the feed was measured after 3, 6 and 24 hours. The food intakes at 3, 6 and 24 hours were calculated by subtracting the residual amount of the feed after 3, 6 and 24 hours from the amount of the feed that was originally given.\n[In FIG. 2, * and ** tested by T-tests indicated to be lower at the levels of significance of 0.05 and 0.01 (P<0.05 and P<0.01]"}},
  "data": [
    {"compound": "CC(C)C[C@H](NC(=O)[C@H](Cc1ccccc1)NC(=O)[C@@H](N)Cc1ccc(O)cc1)C(=O)N[C@@H](Cc1ccccc1)C(=O)N[C@@H](CCCNC(=N)N)C(=O)N1CCC[C@H]1C(=O)N[C@@H](CCCNC(=N)N)C(=O)N[C@@H](CC(N)=O)C(N)=O", "note": "[NMU-8, Try-Phe-Leu-Phe-Arg-Pro-Arg-Asn-NH2]", "values": [
      {"measurement": "IC50", "setting": "Human FM3", "result": 190, "unit": "pM"},
      {"measurement": "antifeedant activity via peripheral administration", "setting": "male C57BL/6J mice", "result": "did not express an antifeedant activity"}
    ]}
  ]
}
